# Source: patent US8741965B2, “Method of administering a pheromone composition to an animal to modify the animals behavior over an extended period of time” (Sergeant's Pet Care Products, Inc., priority 2011, dated 2014)
# Tests used:
# dogs = experiment: Overall conclusions and meta-analysis across Studies 1-4; assay type: in vivo, dog
# Procedure: Three delivery methods were examined (collar, spray, and room diffuser) and conclusions may be drawn about their efficacy. First, the pheromones were similar in efficacy when applied as a collar or spray. When used as a room diffuser, the pheromones/INTEROMONE® compositions had fewer significant effects compared with when they were delivered in collar or spray form. […] Meta-analyses were performed across studies to identify potential over-arching effects (FIGS. 18A and B). […] The reaction of most dogs to handling or startle was to go lay down; but the dogs exposed to rabbit INTEROMONE®were more likely to sit. Other than this general effect, each other finding must be considered within the context of the form of delivery (spray, collar or room diffuser) and the response of individual dog.
# rabbit pups = details: presented on its own to rabbit pups; Schaal et al. 2003; cited from earlier work
# [1] = test system: dogs diagnosed as nervous; experiment: Collars and heart rate of nervous dogs, 24 h basal and fog horn startle (Example 5); assay type: in vivo, dog; details: collar
# Procedure: Dogs diagnosed as being “nervous” were treated with four different treatments on different days: Placebo collar, Pheromone only collar (Serg), Rabbit INTEROMONE® collar (RP) (prepared in accordance with Example 1), and INTEROMONE® Plus Pheromone collar (Serg+RP) (prepared according to formulation provided in Example 3). Each dog experienced a given collar for 24 hours. Heart rate of the dogs was measured by remote telemetry. FIG. 22 illustrates the effects of the collars on heart rate collected over a period of 24 hours.
# Each dog experienced a loud noise (fog horn) during a 2 second blast. The noise startled the dogs. Each dog had the collar on before, during and after the startle experience. […] The data illustrates that Serg alone had no effect on the startled dog heart rate. […] The data further indicate that only the RP is effective in reducing the heart rate of startled dogs.
compound,measurement,setting,value
"C/C=C(\C)C=O [RP, 2-methylbut-2-enal]",behaviors in meta-analysis across studies,"dogs; Studies 1, 2 and 4, FIG. 18",Only dog sitting behavior was increased
same,overall effect on dog behavior and physiology,"dogs; collar, spray and room diffuser, all four studies",most consistent or largest effect on dog behavior and physiology
same,concentration sufficient to elicit full nipple search and grasping behavior (as low as),rabbit pups,10 ng/mL
same,heart rate collected over 24 hours,"[1]; basal testing, versus placebo, FIG. 22",increased heart rate
same,heart rate during startle,"[1]; fog horn 2 second blast, versus control, FIG. 24",lower heart rate during startle compared to control dogs
